Laboratory results from article PMC6980506, “Comparative pharmacokinetics and pharmacodynamics of the advanced Retinol-Binding Protein 4 antagonist in dog and cynomolgus monkey” (PLoS ONE, 2020).
Read-outs that look alike come from different tables or passages of the source.

What was measured:
[1] = Single dose pharmacokinetic study in beagle dog; type: in vivo; details: male, beagle, plasma; for concentration at 12 h / concentration at 24 h / concentration at 36 h / concentration at 48 h / concentration at 0.25 h / concentration at 0.5 h / concentration at 1 h / concentration at 2 h / concentration at 4 h / concentration at 8 h / concentration at 10 h: male beagle dog; for half-life: read-out: T1/2, apparent terminal half-life (converted)
Experimental: Pharmacokinetic studies were conducted in male beagle dogs and male cynomolgus monkeys at SRI International, Menlo Park, CA. General procedures for animal care and housing were in accordance with the National Research Council (NRC) Guide for the Care and Use of Laboratory Animals (1996) and the Animal Welfare Standards incorporated in 9 CFR Part 3, 1991 and complied with guidelines set forth by the ARVO Animal Statement for the Use of Animals in Ophthalmic and Vision Research. During the course of the PK experiments, cynomolgus monkeys were individually housed in stainless steel primary enclosures in an AAALAC-accredited facility. Animals were fed a commercial monkey chow, and supplemental food was provided (fresh fruits, vegetables, seeds, and nuts). Reverse osmosis-purified drinking water was available at all times. Cynomolgus monkeys were maintained on a 12:12 hour light:dark cycle at the 64–84°F temperature and 30–70% humidity. Monkeys had access to enrichment opportunities (grooming devices, foraging devices, activity panels and mirrors) and were provided auditory stimuli and human interaction enrichment throughout the study. Blood samples were collected by venipuncture of a peripheral vein. Animals were acclimated to the squeeze back mechanism in their home cage by repeated, short periods of restraint during general husbandry procedures for at least 2 weeks prior to dosing. Animal were not removed from their cages for collection, and no anesthesia/analgesic agents were used for blood collection. […] For PK experiments, beagle dogs were individually housed in enclosed run (≥ 4 ft x 6 ft). Dogs were exposed to their daily ration of food, Harlan Teklad 2025C Certified Global 25% Protein Dog Diet. Water was provided from the public water supply (municipal tap water) ad libitum. Dogs were maintained on a 12:12 hour light:dark cycle at the 72–73°F temperature and 40–71% humidity. Every effort was made to minimize, if not eliminate, pain and suffering in all animals in this study. No restraining devices were used in blood collecting procedures. Dogs were gentle hand-held to restrain by trained technicians with the dogs foreleg extended for sample collection of blood from cephalic vein. Animals were awake during blood sample collection with no anesthesia/analgesic agents used, and positive reinforcement by the technician was provided following collection. […] All dogs were released back to the colony after the study was completed. Male beagle dogs and male cynomolgus monkey received a single i.v. dose of a test compound at 0.5 mg kg^−1 (dog) and 1 mg kg^−1 (monkey) or a single p.o. dose of a test compound of at 2 mg kg^−1 (dog) and 5 mg kg^−1 (monkey). The number of animals that was used in PK experiments is 3 per study group. Intravenous administration vehicle was 3% DMA/45% PEG300/12% ethanol/40% sterile water; p.o. vehicle was 2% Tween 80 in 0.9% saline. […] Blood samples were processed to plasma. Following protein extraction with acetonitrile, compound concentrations in plasma were measured by LC-MS/MS. The plasma drug level data were analyzed using WinNonlin software package; Model 201 (for i.v. bolus administration);was used for the analysis of i.v. data, and Model 200 (for extravascular administration) was used for the analysis of the p.o. data. Aliquots of pre-dose plasma samples, as well as aliquots of plasma PK samples, were used for the analysis of the plasmabiomarker, RBP4.

[2] = Metabolic clearance in cynomolgus monkey hepatocytes; type: in vitro ADME; details: male, cryopreserved hepatocytes, Cyno hepatocytes, read-out: Hepatocyte CLint (intrinsic clearance)
Experimental: (§1) All measurements were done in duplicate. Testosterone and 7-hydroxycoumarin were used as positive controls. Pooled cryopreserved human hepatocytes, cryopreserved male beagle dog hepatocytes, and cryopreserved male cynomolgus monkey hepatocytes were obtained from BioIVT (Baltimore, MD). Compound at 1 μM was incubated with 1 x 10^6 cells. Final DMSO concentration in the reaction mix was 0.1%. Aliquots (100 μL) of reaction mixtures were removed from the incubation plate at different timepoints and mixed with 150 μL of ice-cold acetonitrile. After incubation on ice for 15 min, the samples were centrifuged (3,600 rpm, 10 min, 4°C) to precipitate protein. The supernatants were diluted 1:1 (v/v) with water containing internal standards and subjected to the LC/MS analysis. Hepatic clearance was calculated using the well-stirred liver model

[3] = Metabolic clearance in dog hepatocytes; type: in vitro ADME; details: male, beagle, cryopreserved hepatocytes, read-out: Hepatocyte CLint (intrinsic clearance)
Experimental: as §1

[4] = dog, iv, 0.5 mg/kg, iv 0.5 mg/kg, read-out: Plasma level, Mean
[5] = dog, iv, 0.5 mg/kg, iv 0.5 mg/kg, read-out: Plasma level, Individual animals
[6] = dog, po, 2 mg/kg, po 2 mg/kg, read-out: Plasma level, Individual animals
[7] = dog, po, 2 mg/kg, po 2 mg/kg, read-out: Plasma level, Mean
[8] = iv, Dog, 0.5 mg kg^−1 i.v., mean ± SD, n=3
[9] = po, Dog, 2.0 mg kg^−1 p.o., mean ± SD, n=3

- concentration at 12 h [1, 4]: 107 ng/mL
- concentration at 24 h [1, 5]: 169 ng/mL
- concentration at 24 h [1, 4]: 175 ng/mL
- concentration at 36 h [1, 5]: 33.3 ng/mL
- concentration at 36 h [1, 4]: 41 ng/mL
- concentration at 48 h [1, 5]: 92.8 ng/mL
- concentration at 48 h [1, 4]: 95.9 ng/mL
- bioavailability ([1]; dog, oral, 2 mg kg^−1, Dog, 2.0 mg kg^−1 p.o. vs 0.5 mg kg^−1 i.v., read-out: %F, bioavailability): ~84%
- concentration at 0.25 h [1, 6]: 7100 ng/mL
- concentration at 0.25 h [1, 7]: 7090 ng/mL
- concentration at 0.5 h [1, 6]: 6340 ng/mL
- concentration at 0.5 h [1, 7]: 6720 ng/mL
- concentration at 1 h [1, 6]: 6630 ng/mL
- concentration at 1 h [1, 7]: 5940 ng/mL
- concentration at 2 h [1, 6]: 3600 ng/mL
- concentration at 2 h [1, 7]: 4120 ng/mL
- concentration at 4 h [1, 6]: 1790 ng/mL
- concentration at 4 h [1, 7]: 2140 ng/mL
- concentration at 8 h [1, 6]: 855 ng/mL
- concentration at 8 h [1, 7]: 904 ng/mL
- concentration at 10 h [1, 6]: 407 ng/mL
- concentration at 10 h [1, 7]: 559 ng/mL
- concentration at 12 h [1, 6]: 453 ng/mL
- concentration at 12 h [1, 7]: 532 ng/mL
- concentration at 24 h [1, 6]: 330 ng/mL
- concentration at 24 h [1, 7]: 383 ng/mL
- concentration at 36 h [1, 6]: 82.4 ng/mL
- concentration at 36 h [1, 7]: 94.2 ng/mL
- concentration at 48 h [1, 7]: 126 ng/mL
- AUC(0-inf) [1, 8]: 10700 ± 500 ng·h/mL
- AUC(0-t) [1, 8]: 10300 ± 500 ng·h/mL
- clearance ([1]; iv, Dog, 0.5 mg kg^−1 i.v., mean ± SD, n=3, read-out: CL, total body clearance (converted)): 0.783 mL/min/kg
- Cmax ([1]; iv, Dog, 0.5 mg kg^−1 i.v., mean ± SD, n=3, read-out: Cmax, maximum observed concentration at first time point): 2700 ± 100 ng/mL
- half-life [1, 8]: 2.6 ± 0.2 h
- Vd ([1]; iv, Dog, 0.5 mg kg^−1 i.v., mean ± SD, n=3, read-out: Vss, volume of distribution at steady state): 0.622 ± 0.0034 L/kg
- AUC(0-inf) [1, 9]: 35900 ± 4400 ng·h/mL
- AUC(0-t) [1, 9]: 35400 ± 400 ng·h/mL
- Tmax [1, 9]: 0.33 ± 0.14 h
- Cmax ([1]; po, Dog, 2.0 mg kg^−1 p.o., mean ± SD, n=3, read-out: Cmax): 7500 ± 200 ng/mL
- half-life [1, 9]: 2.9 ± 0.4 h
- hepatocyte CLint at 1 μM [2]: 0.7 µL/min/1e6 cells
- hepatocyte CLint at 1 μM [3]: < 0.7 µL/min/1e6 cells
SMILES: Cc1cc(C(=O)O)nc(N2C[C@H]3C[C@@H](c4ccccc4C(F)(F)F)C[C@H]3C2)n1 [BPN-14136]
